Source: PubChem BioAssay (NCI)
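In this assay, cells in 96-well plates receive the compound at five concentrations for 48 hours. Endpoints are linearly interpolated between the surrounding concentrations. Here, GI50 denotes the concentration required for 50% inhibition of growth. At the TGI there is no net growth.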

Assays:
Test in all cases: DTP human tumour cell line panel, 48 h
TK-10 renal = test system: TK-10 renal
SF-539 CNS = test system: SF-539 CNS
NCI-H23 lung = test system: NCI-H23 lung
MDA-MB-435 = test system: MDA-MB-435
SK-OV-3 ovarian = test system: SK-OV-3 ovarian
UACC-257 melanoma = test system: UACC-257 melanoma
HL-60(TB) leukemia = test system: HL-60(TB) leukemia
UO-31 renal = test system: UO-31 renal
RXF 393 renal = test system: RXF 393 renal
HCC-2998 colon = test system: HCC-2998 colon
HOP-62 NSCLC = test system: HOP-62 NSCLC
HS 578T breast = test system: HS 578T breast
MDA-MB-231 breast = test system: MDA-MB-231 breast
BT-549 breast = test system: BT-549 breast
A549 NSCLC = test system: A549 NSCLC
MOLT-4 leukemia = test system: MOLT-4 leukemia
SN12C renal = test system: SN12C renal
MDA-MB-468 breast = test system: MDA-MB-468 breast
T-47D breast = test system: T-47D breast
M14 melanoma = test system: M14 melanoma
MALME-3M melanoma = test system: MALME-3M melanoma
HCT-116 colon = test system: HCT-116 colon
SK-MEL-28 melanoma = test system: SK-MEL-28 melanoma
SR leukemia = test system: SR leukemia
IGROV1 ovarian = test system: IGROV1 ovarian
CCRF-CEM leukemia = test system: CCRF-CEM leukemia
COLO 205 colon = test system: COLO 205 colon
SK-MEL-2 melanoma = test system: SK-MEL-2 melanoma
786-0 renal = test system: 786-0 renal
SF-268 CNS = test system: SF-268 CNS
SF-295 CNS = test system: SF-295 CNS
HCT-15 colon = test system: HCT-15 colon
EKVX NSCLC = test system: EKVX NSCLC
SNB-19 CNS = test system: SNB-19 CNS
CAKI-1 renal = test system: CAKI-1 renal
SNB-75 CNS = test system: SNB-75 CNS
MCF7 breast = test system: MCF7 breast
LOX IMVI melanoma = test system: LOX IMVI melanoma
SK-MEL-5 melanoma = test system: SK-MEL-5 melanoma
PC-3 prostate = test system: PC-3 prostate
KM12 colon = test system: KM12 colon
OVCAR-3 ovarian = test system: OVCAR-3 ovarian
SW-620 colon = test system: SW-620 colon
OVCAR-8 ovarian = test system: OVCAR-8 ovarian
A498 renal = test system: A498 renal
K-562 leukemia = test system: K-562 leukemia
NCI-H460 lung = test system: NCI-H460 lung
NCI-H522 lung = test system: NCI-H522 lung
U251 CNS = test system: U251 CNS
OVCAR-5 ovarian = test system: OVCAR-5 ovarian
HT29 colon = test system: HT29 colon
DU-145 prostate = test system: DU-145 prostate
OVCAR-4 ovarian = test system: OVCAR-4 ovarian
RPMI-8226 leukemia = test system: RPMI-8226 leukemia

## COC[C@@H](CC(C)C)N=C1N/C(=C\c2ccc3ncsc3c2)C(=O)N1C
TK-10 renal
  GI50: 3.8 µM
  TGI: > 100 µM
SF-539 CNS
  GI50: 0.958 µM
  TGI: 7.12 µM
NCI-H23 lung
  GI50: 2.02 µM
  TGI: 14.2 µM
MDA-MB-435
  GI50: 3.72 µM
  TGI: > 100 µM
SK-OV-3 ovarian
  GI50: 1.96 µM
  TGI: 9.82 µM
UACC-257 melanoma
  GI50: 2.81 µM
  TGI: > 100 µM
HL-60(TB) leukemia
  GI50: 2.55 µM
  TGI: 8.29 µM
UO-31 renal
  GI50: 1.87 µM
  TGI: 7.21 µM
RXF 393 renal
  GI50: 2.18 µM
  TGI: 6.85 µM
HCC-2998 colon
  GI50: 2.67 µM
  TGI: 18.6 µM
HOP-62 NSCLC
  GI50: 2.23 µM
  TGI: 8.86 µM
HS 578T breast
  GI50: 2.03 µM
  TGI: 9.14 µM
MDA-MB-231 breast
  GI50: 3.9 µM
  TGI: > 100 µM
BT-549 breast
  GI50: 2.01 µM
  TGI: 9.51 µM
A549 NSCLC
  GI50: 2.05 µM
  TGI: > 100 µM
MOLT-4 leukemia
  GI50: 2.8 µM
  TGI: > 100 µM
SN12C renal
  GI50: 3 µM
  TGI: > 100 µM
MDA-MB-468 breast
  GI50: 0.999 µM
  TGI: 6.09 µM
T-47D breast
  GI50: 2.01 µM
  TGI: > 100 µM
M14 melanoma
  GI50: 4.11 µM
  TGI: > 100 µM
MALME-3M melanoma
  GI50: 2.36 µM
  TGI: 8.53 µM
HCT-116 colon
  GI50: 1.22 µM
  TGI: > 100 µM
SK-MEL-28 melanoma
  GI50: 2.93 µM
  TGI: 8.72 µM
SR leukemia
  GI50: 2.17 µM
  TGI: 24.9 µM
IGROV1 ovarian
  GI50: 2.26 µM
  TGI: > 100 µM
CCRF-CEM leukemia
  GI50: 2.55 µM
  TGI: 18.6 µM
COLO 205 colon
  GI50: 1.97 µM
  TGI: 7.26 µM
SK-MEL-2 melanoma
  GI50: 1.53 µM
  TGI: 3.77 µM
786-0 renal
  GI50: 3.48 µM
  TGI: > 100 µM
SF-268 CNS
  GI50: 2.85 µM
  TGI: > 100 µM
SF-295 CNS
  GI50: 3.25 µM
  TGI: > 100 µM
HCT-15 colon
  GI50: 2.01 µM
  TGI: > 100 µM
EKVX NSCLC
  GI50: 3.06 µM
  TGI: > 100 µM
SNB-19 CNS
  GI50: 0.999 µM
  TGI: > 100 µM
CAKI-1 renal
  GI50: 1.73 µM
  TGI: > 100 µM
SNB-75 CNS
  GI50: 0.0476 µM
  TGI: 4.84 µM
MCF7 breast
  GI50: 2.57 µM
  TGI: 22.2 µM
LOX IMVI melanoma
  GI50: 2.34 µM
  TGI: > 100 µM
SK-MEL-5 melanoma
  GI50: 1.77 µM
  TGI: 4.62 µM
PC-3 prostate
  GI50: 4.24 µM
  TGI: > 100 µM
KM12 colon
  GI50: 2.36 µM
  TGI: > 100 µM
OVCAR-3 ovarian
  GI50: 1.23 µM
  TGI: 5.31 µM
SW-620 colon
  GI50: 1.54 µM
  TGI: > 100 µM
OVCAR-8 ovarian
  GI50: 2.65 µM
  TGI: > 100 µM
A498 renal
  GI50: 1.2 µM
  TGI: 4.97 µM
K-562 leukemia
  GI50: 1.76 µM
  TGI: > 100 µM
NCI-H460 lung
  GI50: 2.61 µM
  TGI: > 100 µM
NCI-H522 lung
  GI50: 1.34 µM
  TGI: 6.03 µM
U251 CNS
  GI50: 2.35 µM
  TGI: > 100 µM
OVCAR-5 ovarian
  GI50: 4.15 µM
  TGI: > 100 µM
HT29 colon
  GI50: 3.27 µM
  TGI: 16.2 µM
DU-145 prostate
  GI50: 3.22 µM
  TGI: > 100 µM
OVCAR-4 ovarian
  GI50: 4.29 µM
  TGI: > 100 µM
RPMI-8226 leukemia
  GI50: 2.7 µM
  TGI: 12.3 µM
